# Source: patent US20240067625A1, “SMALL-MOLECULE MODULATORS OF THE ORPHAN NUCLEAR RECEPTOR TLX” (priority 2020, published 2024)
# Target: TLX LBD (Homo sapiens (Human), UniProt Q9Y466)
# Test: ALPHA screen assay for TLX LBD and coactivator peptide recruitment
# Assay type: biochemical
# Conditions: Table 3; for Average ALPHA signal at 200 μM (std. dev.): mean (std. dev.)
# Protocol: Assays were performed according to the manufacturer's protocol (PerkinElmer, USA), with the following modifications: Ligands were tested for TLX-coactivator binding in 50 mM phosphate buffer, 150 mM NaCl, pH 7, 1 mM DTT and 100 μM CHAPS. Ligands were dissolved and diluted in DMSO as stocks and were prepared in assay buffer from the original stock in the 100% DMSO and added to the assay plate. Biotinylated SRC peptide and polyhistidine tagged TLX LBD were diluted in assay buffer, subsequently added to respective ALPHA beads, under low light. The plates were spun down, mixed with a shaker and incubated for 120 minutes and read on a TECAN Plate reader using the manufacturer's protocol.
# Sequence of TLX LBD (Q9Y466 155-383): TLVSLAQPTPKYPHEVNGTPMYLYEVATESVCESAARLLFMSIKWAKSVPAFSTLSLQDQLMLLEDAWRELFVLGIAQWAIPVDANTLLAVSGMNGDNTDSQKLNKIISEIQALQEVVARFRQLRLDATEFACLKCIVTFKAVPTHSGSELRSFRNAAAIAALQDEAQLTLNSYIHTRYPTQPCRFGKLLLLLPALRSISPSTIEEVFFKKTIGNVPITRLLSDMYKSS
SMILES,Average ALPHA signal at 200 μM (std. dev.),EC50
CC(C)CNc1ncccc1C(=O)N1CCN(Cc2ccccc2)[C@@H](C)C1 [Compound 89],1.98 (0.05),–
COC(=O)C[C@H]1CN(Cc2ccccc2)[C@H](C)CN1C(=O)c1cccnc1NCCC(C)C [Compound 76],3.09 (0.18),0.0126 nM
COC(=O)C[C@@H]1CN(C(=O)c2cccnc2NCCC(C)C)C[C@@H](C)N1Cc1ccccc1 [Compound 64],2.26 (0.07),0.00858 nM
COC(=O)c1ccc(CN2CCN(C(=O)c3cccnc3NCCC(C)C)CC2)cc1 [Compound 57],2.54 (0.04),0.0745 nM
COC(=O)C[C@@H]1CN(Cc2ccccc2)[C@@H](C)CN1C(=O)c1cccnc1NCCC(C)C [Compound 74],2.96 (0.08),0.00982 nM
COC(=O)C[C@H]1[C@H](C)N(Cc2ccccc2)CCN1C(=O)c1cccnc1NCCC(C)C [Compound 70],2.63 (0.01),0.00485 nM
CC(C)CCNc1ncccc1C(=O)N1CCN(C)C[C@H]1C [Compound 50],0.93 (0.05),–
CCCCN1CCN(C(=O)c2cccnc2NCCC(C)C)[C@@H](C)C1 [Compound 37],2.30 (0.02),0.0335 nM
CC(C)CCNc1ncccc1C(=O)N1CCN(CCCc2ccccc2)C[C@@H]1C [Compound 35],4.57 (0.38),0.0128 nM
C[C@H]1CN(C(=O)c2cccnc2NC2CC2)CCN1Cc1ccccc1 [Compound 91],1.48 (0.04),–
C[C@@H]1CN(C(=O)c2cccnc2NC2CC2)CCN1Cc1ccccc1 [Compound 86],1.35 (0.04),–
CC(C)Nc1ncccc1C(=O)N1CCN(Cc2ccccc2)[C@H](C)C1 [Compound 85],1.48 (0.16),–
CC(C)CCNc1ncccc1C(=O)N1C[C@H](C)N(Cc2ccccc2)C[C@H]1CC(=O)O [Compound 82],1.11 (0.02),–
CC(C)CCNc1ncccc1C(=O)N1CCN(CCC2CCN(C(=O)OC(C)(C)C)CC2)C[C@@H]1C [Compound 41],2.73 (0.13),0.00585 nM
CC(C)CCNc1ncccc1C(=O)N1C[C@H](CC(=O)O)N(Cc2ccccc2)[C@H](C)C1 [Compound 67],0.97 (0.03),–
CC(C)CCNc1ncccc1C(=O)N1CCN(Cc2cccc(C(=O)O)c2)CC1 [Compound 59],1.25 (0.09),–
CC(C)CCNc1ncccc1C(=O)N1C[C@@H](C)N(Cc2ccccc2)C[C@@H]1CC(=O)O [Compound 84],1.09 (0.01),–
COC(=O)C[C@H]1[C@@H](C)N(Cc2ccccc2)CCN1C(=O)c1cccnc1NCCC(C)C [Compound 71],2.47 (0.03),–
COC(=O)C[C@@H]1CN(C(=O)c2cccnc2NCCC(C)C)C[C@H](C)N1Cc1ccccc1 [Compound 61],2.89 (0.07),0.0152 nM
CNc1ncccc1C(=O)N1CCN(Cc2ccccc2)[C@@H](C)C1 [Compound 92],1.85 (0.10),–
CC(C)Nc1ncccc1C(=O)N1CCN(Cc2ccccc2)[C@@H](C)C1 [Compound 90],1.57 (0.06),–

SMILES,Average ALPHA signal at 200 μM (std. dev.),EC50
COC(=O)C[C@@H]1[C@H](C)N(Cc2ccccc2)CCN1C(=O)c1cccnc1NCCC(C)C [Compound 69],2.53 (0.08),0.0081 nM
CC(C)CCNc1ncccc1C(=O)N1C[C@H](C)N(Cc2ccccc2)C[C@@H]1CC(=O)O [Compound 81],1.15 (0.02),–
CC(C)CCNc1ncccc1C(=O)N1CCN(Cc2ccc(C(=O)O)cc2)CC1 [Compound 60],1.06 (0.05),–
Cc1ccccc1CN1CCN(C(=O)c2cccnc2NCCC(C)C)[C@@H](C)C1 [Compound 31],4.52 (0.06),0.0138 nM
Cc1ccc(CN2CCN(C(=O)c3cccnc3NCCC(C)C)[C@@H](C)C2)cc1 [Compound 33],3.89 (0.21),0.0187 nM
CC(C)CCNc1ncccc1C(=O)N1C[C@H](CC(=O)O)N(Cc2ccccc2)[C@@H](C)C1 [Compound 66],0.96 (0.03),–
CC(C)CCNc1ncccc1C(=O)N1CCN(CCCc2ccccc2)C[C@H]1C [Compound 48],3.75 (0.31),–
CC(C)CCNc1ncccc1C(=O)N1CCN(Cc2ccccc2)C[C@H]1CC(C)C [Compound 93],3.46 (0.10),–
CC(C)CCNc1ncccc1C(=O)N1C[C@@H](C)N(Cc2ccccc2)C[C@H]1CC(=O)O [Compound 83],1.02 (0.03),–
CC(C)CCNc1ncccc1C(=O)N1CCN(C)C[C@@H]1C [Compound 38],0.85 (0.06),–
CC(C)CCNc1ncccc1C(=O)N1CCN(Cc2ccccc2)[C@@H](C)[C@@H]1CC(=O)O [Compound 78],1.16 (0.03),–
Cc1cccc(CN2CCN(C(=O)c3cccnc3NCCC(C)C)[C@@H](C)C2)c1 [Compound 32],3.85 (0.09),0.0143 nM
CCCCCCN1CCN(C(=O)c2cccnc2NCCC(C)C)[C@H](C)C1 [Compound 47],7.81 (0.45),0.0125 nM
CC(C)CCNc1ncccc1C(=O)N1CCN(Cc2c[nH]c3ccccc23)C[C@@H]1C [Compound 42],0.96 (0.05),–
CC(C)CCNc1ncccc1C(=O)N1CCN(Cc2ccc3cnccc3c2)C[C@H]1C [Compound 52],2.03 (0.12),0.0261 nM
CC(C)CCNc1ncccc1C(=O)N1CCN(Cc2c[nH]c3ccccc23)C[C@H]1C [Compound 54],1.17 (0.06),–
CC(C)CCNc1ncccc1C(=O)N1CCN(Cc2ccccn2)C[C@H]1C [Compound 46],0.86 (0.09),–
CCCCN1CCN(C(=O)c2cccnc2NCCC(C)C)[C@H](C)C1 [Compound 49],3.09 (0.12),0.0332 nM
CC(C)CCNc1ncccc1C(=O)N1CCN(Cc2ccccn2)C[C@@H]1C [Compound 34],1.29 (0.05),–
"Cc1cc(C(=O)N2CCN(C(c3ccccc3)c3ccccc3)CC2)nn1C [Compound 30, reference compound]",1.93 (0.08),0.0673 nM
CC(C)CCNc1ncccc1C(=O)N1CCN(Cc2ccccc2C(=O)O)CC1 [Compound 58],1.30 (0.05),–

SMILES,Average ALPHA signal at 200 μM (std. dev.),EC50
CC(C)CCNc1ncccc1C(=O)N1C[C@@H](CC(=O)O)N(Cc2ccccc2)[C@H](C)C1 [Compound 68],1.02 (0.03),–
Cc1ccccc1CN1CCN(C(=O)c2cccnc2NCCC(C)C)[C@H](C)C1 [Compound 43],3.49 (0.17),–
CC(C)CCNc1ncccc1C(=O)N1CCN(CCC2CCN(C(=O)OC(C)(C)C)CC2)C[C@H]1C [Compound 53],2.84 (0.05),0.00904 nM
Cc1ccc(CN2CCN(C(=O)c3cccnc3NCCC(C)C)[C@H](C)C2)cc1 [Compound 45],3.50 (0.06),0.0113 nM
CC(C)CCNc1ncccc1C(=O)N1CCN(Cc2ccccc2)C[C@@H]1CC(C)C [Compound 94],3.65 (0.10),0.003 nM
COC(=O)c1ccccc1CN1CCN(C(=O)c2cccnc2NCCC(C)C)CC1 [Compound 55],2.87 (0.07),0.0412 nM
COC(=O)C[C@H]1CN(Cc2ccccc2)[C@@H](C)CN1C(=O)c1cccnc1NCCC(C)C [Compound 73],2.69 (0.07),–
CC(C)CCNc1ncccc1C(=O)N1CCN(Cc2ccccc2)[C@H](C)[C@H]1CC(=O)O [Compound 80],1.11 (0.07),–
COC(=O)C[C@@H]1[C@@H](C)N(Cc2ccccc2)CCN1C(=O)c1cccnc1NCCC(C)C [Compound 72],2.51 (0.10),–
COc1cccc(CN2CCN(C(=O)c3cccnc3NCCC(C)C)[C@H](C)C2)c1 [Compound 51],2.98 (0.10),0.0199 nM
COC(=O)c1cccc(CN2CCN(C(=O)c3cccnc3NCCC(C)C)CC2)c1 [Compound 56],2.74 (0.08),0.0442 nM
CC(C)CNc1ncccc1C(=O)N1CCN(Cc2ccccc2)[C@H](C)C1 [Compound 87],2.07 (0.03),–
COc1cccc(CN2CCN(C(=O)c3cccnc3NCCC(C)C)[C@@H](C)C2)c1 [Compound 39],3.19 (0.17),0.0276 nM
COC(=O)C[C@H]1CN(C(=O)c2cccnc2NCCC(C)C)C[C@H](C)N1Cc1ccccc1 [Compound 62],2.54 (0.08),0.012 nM
COC(=O)C[C@H]1CN(C(=O)c2cccnc2NCCC(C)C)C[C@@H](C)N1Cc1ccccc1 [Compound 63],2.72 (0.05),0.0123 nM
Cc1cccc(CN2CCN(C(=O)c3cccnc3NCCC(C)C)[C@H](C)C2)c1 [Compound 44],3.28 (0.09),0.0124 nM
CNc1ncccc1C(=O)N1CCN(Cc2ccccc2)[C@H](C)C1 [Compound 88],2.17 (0.21),–
CCCCCCN1CCN(C(=O)c2cccnc2NCCC(C)C)[C@@H](C)C1 [Compound 36],8.78 (0.30),0.0126 nM
CC(C)CCNc1ncccc1C(=O)N1CCN(Cc2ccc3cnccc3c2)C[C@@H]1C [Compound 40],2.48 (0.02),0.0529 nM
